Measurements: patent US7772212B2, “Isomaltooligosaccharides to inhibit avian pathogenic intestinal bacteria” (priority 2003, dated 2010)

Tests used:
[1] = system: α-Glucosidase (maltase; EC 3.2.1.20); assay: Kinetic assay for α-glucosidase; format: biochemical; conditions: 0%, 0.25%, 0.5% test sugar; maltose 0, 50, 100, 250 mM; 37° C., pH 7
Protocol: α-Glucosidase (maltase; EC 3.2.1.20), β-NAD, glucose dehydrogenase (EC 1.1.147) and other reagent chemicals were obtained from the Sigma Chemical Co. (St. Louis, Mo.). The kinetic assays were based on the following reaction;
The kinetic assays were all performed in 96-well plates and read at wavelength 320 nm in a SPECTRAmax Plus microtiter plate reader (Molecular Devices Corp., Sunnyvale, Calif.) at 37° C. The software package Softmax™ was used for data analysis. α-Glucosidase (maltase; EC 3.2.1.20), β-NAD, and glucose dehydrogenase (EC 1.1.147) solutions were prepared with 0.1M K2HPO4 (pH 7) buffer. Each well contained 25 μl of 0.13 IU/ml glucose dehydrogenase, 25 μl of 1.65 IU/ml of α-glucosidase, and 20 μl of 12 mM of G-NAD in a total volume of 200 μl with different combinations of sugars and 0.1M K2HPO4 (pH 7) buffer. Absorbance change with time was measured at 320 nm.
In order to determine the role of branching in the inhibition, the Ki values for panose and isomaltotriose were also determined.

S. typhimurium = assay: Growth test with panose and maltooligosaccharides; format: cell-based, Salmonella typhimurium; conditions: combinations of panose and maltooligosaccharides (DP 4 to DP 10), anaerobic, 37° C.
Protocol: (§1) To further determine whether Leuconostoc IMO acts as a starch-metabolism inhibitor, B. longum and S. typhimurium were grown in different combinations of panose and maltooligosaccharides (from DP 4 to DP 10). As the concentration of panose in the growth medium increased, the growth of S. typhimurium slowed but B. longum growth increased. (FIGS. 11A and 11B, respectively).

B. longum = assay: Growth test with panose and maltooligosaccharides; format: cell-based, Bifidobacterium longum; conditions: combinations of panose and maltooligosaccharides (DP 4 to DP 10), anaerobic, 37° C.
Protocol: as §1

SMILES | Inhibition of α-glucosidase (maltase) activity [1] | Growth of S. typhimurium as panose concentration in medium increased (S. typhimurium) | Growth of B. longum as panose concentration in medium increased (B. longum)
OC[C@H]1O[C@H](OC[C@H]2O[C@H](OC[C@H]3OC(O)[C@H](O)[C@@H](O)[C@@H]3O)[C@H](O)[C@@H](O)[C@@H]2O)[C@H](O)[C@@H](O)[C@@H]1O (stereo partly shown) [Isomaltotriose, isomaltotriose] | not inhibitory |  | 
OC[C@H]1O[C@H](OC[C@H]2O[C@H](O[C@H]3[C@H](O)[C@@H](O)C(O)O[C@@H]3CO)[C@H](O)[C@@H](O)[C@@H]2O)[C@H](O)[C@@H](O)[C@@H]1O (stereo partly shown) [panose] | showed an inhibition | slowed | increased
